# Laboratory results published in the SangsterLogP compilation.
# Experiment: method code SF-HPLC, from PMID: 1388632
# Settings: pH 7.4
row,SMILES,logD
1,CC(=O)C1=CC(=O)c2c(c(CO)c3n2CCC3O)C1=O (centres undefined),-0.09
2,CCCC(=O)OCc1c2c(n3c1C(OC(=O)CCC)CC3)C(=O)C(C)=C(C(C)=O)C2=O (centres undefined),4
3,CCNC(=O)OCc1c2c(n3c1C(O)CC3)C(=O)C(C)=C(OC)C2=O (centres undefined),1.83
4,CC(=O)OCc1c2c(n3c1C(OC(C)=O)CC3)C(=O)C(C)=C(N1CC1)C2=O (centres undefined),1.75
5,CC(=O)OCc1c2c(n3c1C(OC(C)=O)CC3)C(=O)C=C(C(C)=O)C2=O (centres undefined),1.15
6,CC(=O)C1=C(C)C(=O)c2c(c(CO)c3n2CCC3O)C1=O (centres undefined),1.14

# Now from value to compound:
row,logD,SMILES
1,2.81,CC(=O)OCc1c2c(n3c1CCC3)C(=O)C(C)=C(C(C)=O)C2=O
2,0.89,CC(=O)OCc1c2c(n3c1C(O)CCC3)C(=O)C=C(C(C)=O)C2=O (centres undefined)
3,0.37,CC(=O)C1=CC(=O)c2c(c(CO)c3n2CCCC3O)C1=O (centres undefined)
